In ChEMBL document CHEMBL1131798, “Synthesis and cytotoxicity of analogues of the antibiotic BE 10988 inhibitors of DNA topoisomerase II” (Bioorg Med Chem Lett, 1999):

Test system: L1210
Experiment: Antiproliferative activity using the murine L1210 leukemia cell line
Format: functional, cell-based
Conditions: Mus musculus

IC50 | Structure (SMILES)
> 10 µM | COc1ccc(OC)c2c1c(-c1nc(C(N)=O)cs1)cn2C
0.8 µM | Cn1cc(-c2nc(C(N)=O)cs2)c2c1C(=O)C=CC2=O
6.5 µM | Cn1cc(C(=O)NCCN2CCOCC2)c2c1C(=O)C=CC2=O
> 100 µM | COc1ccc(OC)c2c1c(C(=O)NCCN1CCOCC1)cn2C
